System: primary mouse hepatocytes
Assay: In vitro glucose production, VPC and lipolysis in isolated hepatocytes
Assay type: cell-based
Conditions: for glucagon-stimulated VPC flux / glucagon-stimulated glucose production: WT hepatocytes, 100 nM glucagon, 8 hr; for effect of glucagon to stimulate intrahepatic lipolysis: isolated hepatocytes
Experimental: For in vitro glucose production and lipolysis studies, primary mouse hepatocytes were isolated by the Yale Liver Center. Following removal of cell debris by Percoll density gradient centrifugation, cells were plated on 6-well collagen-I coated dishes (4.0×10^5 cells/well) in 2 ml recovery media (DMEM High Glucose containing 10% FBS, 2% penicillin-streptomycin, 100 nM dexamethasone, 1 nM insulin, and 10 mM HEPES). After incubation for 6 hr at 37° C. and 5% CO2, the attached cells were washed once in 1×PBS and then incubated overnight in 2 ml Low Glucose Culture Media (DMEM Low Glucose supplemented with 10% FBS, 2% penicillin-streptomycin and 10 mM HEPES for glucose production studies) or Serum Free Low Glucose Culture Media (DMEM Low Glucose supplemented with 0.5% fatty acid free BSA, 2% penicillin-streptomycin and 10 mM HEPES for lipolysis assays). […] After incubation for 8 hr at 37° C. and 5% CO2, cell culture media was collected for analysis of glucose, NEFA, and glycerol concentrations as described above. VPC was determined by measuring VPC/VEGP by PINTA as described above using 300 μL of the collected media, and multiplying this ratio by the measured glucose production rate. In a subset of studies, cells were incubated for 8 hr during the glucose production assay in media containing one of the following agents (all dissolved in 0.5% DMSO), or 0.5% DMSO vehicle: 20 μM ET-18-OCH3 (Santa Cruz), 100 μM U-73122 (Sigma), 30 nM thapsigargin (Sigma), 100 nM vasopressin (Sigma) 50 μM 2-APB (R&D Systems), 70 μM caffeine (Sigma), 1 mM malic enzyme inhibitor hydroxymalonate (Sigma). To inhibit PKA, hepatocytes were incubated in H-89 […] hydrate (Sigma, 25 μM) dissolved in media, or media lacking H-89 as a control. In the insulin treatment studies, hepatocytes were incubated in 1 nM insulin with 5% BSA and glucose production media for the duration of the glucose production assay. In the in vitro atglistatin study, hepatocytes were incubated in 10 μM atglistatin in 0.1% EtOH, or 0.1% EtOH vehicle. All values were normalized to total protein content determined from whole-cell lysates by a BCA protein assay (Thermo Fisher Scientific) according to the manufacturer's instructions and expressed as fold change verses vehicle-treated cells.

Row | Compound | glucagon-stimulated VPC flux | glucagon-stimulated glucose production | effect of glucagon to stimulate intrahepatic lipolysis | glucose production and VPC flux (isolated hepatocytes with insulin, unaltered in InsP3R-I KO)
1 | NCCOB(c1ccccc1)c1ccccc1 [2-APB, 2-aminoethoxydiphenyl borate] | inhibited | inhibited | abrogated | –
2 | CCCCCCCCCCCCCCCCCCOCC(COP(=O)([O-])OCC[N+](C)(C)C)OC (stereo not drawn) [ET-18-OCH3] | inhibited | inhibited | abrogated | –
3 | COc1ccc(S(=O)(=O)N(CCO)c2ccccc2CN(C)C/C=C/c2ccc(Cl)cc2)cc1 [KN-93] | – | abrogated | abrogated | –
4 | COc1ccc2c(c1)CC[C@@H]1[C@@H]2CC[C@]2(C)[C@@H](NCCCCCCN3C(=O)C=CC3=O)CC[C@@H]12 [U-73122] | inhibited | inhibited | abrogated | –
5 | Cn1c(=O)c2c(ncn2C)n(C)c1=O [caffeine] | inhibited | inhibited | abrogated | –
6 | C/C=C(/C)C(=O)O[C@H]1C(C)=C2[C@H]([C@@H]1OC(=O)CCCCCCC)[C@@](C)(OC(C)=O)C[C@H](OC(=O)CCC)[C@@]1(O)[C@H]2OC(=O)[C@@]1(C)O [thapsigargin] | inhibited | inhibited | abrogated | –
7 | insulin | – | – | – | suppress
